{
  "source": "patent US20240398767A1",
  "about": "“INHIBITORS OF THE MTDH-SND1 PROTEIN COMPLEX FOR CANCER THERAPY” (The Trustees of Princeton University, priority 2021, published 2024)",
  "system": "Py8119-OVA cells co-cultured with OT-I splenocytes",
  "test": "Py8119-OVA tumor cell / OT-I splenocyte co-culture",
  "type": "cell-based, mouse",
  "details": "200 μM",
  "protocol": "FIG. 22C, Py8119-OVA cells co-cultured with OT-I splenocytes were treated with 200 μM of C26-A6 or same amount of vehicle. The binding between MTDH and Tap1/2 in tumor cells were determined by RIP assay.\nFIG. 22D, Tap1/2 RNAs that bind to MTDH in (c) were quantified and normalized to the pulled down MTDH levels.\nFIG. 22E, Tap1/2 levels in Py8119-OVA cells with/without 200 μM of C26-A6 treatment during co-culture were examined by qRT-PCR.\nFIG. 22F, OVA (H-2K^b-SIINFEKL) presentation in Py8119-OVA cells with/without 200 μM of C26-A6 treatment in co-culture were determined by flow cytometry. MFI, Mean Fluorescence Intensity; AU, arbitrary units.\nFIG. 22G, Media in (E) was collected for IFN-γ ELISA and cytotoxicity assay. AU, arbitrary units.\nFIG. 32B, Py8119-OVA cells co-cultured with OT-I splenocytes were treated with 200 μM of C26-A6 or same amount of vehicle. The binding between SND1 and Tap1/2 in tumor cells were determined by RIP assay.\nFIG. 32C, Tap1/2 RNAs that bind to SND1 were quantified and normalized to the pulled down SND1 levels.\nFIG. 32D, MHC-I presentation in Py8119-OVA cells with/without 200 μM of C26-A6 treatment in co-culture were determined by flow cytometry. MFI, mean fluorescence intensity; AU, arbitrary units.\nFIGS. 32E, The expression of CD137 in splenocytes co-cultured with Py8119-OVA was determined by flow cytometry upon 200 μM of C26-A6 or vehicle treatment.\nFIGS. 32F, The expression of IFN-γ in splenocytes co-cultured with Py8119-OVA were determined by flow cytometry upon 200 μM of C26-A6 or vehicle treatment.\nImmune cell and tumor cell co-culture assay. Py8119-OVA tumor cells with various MTDH expression status were plated in 6-well plates for in vitro co-culture in DMEM/F12 media listed above. Once cells reached 50-75% confluency OT-I splenocytes or CD8^+ T cells were added to the tumor cells at the 1:10 ratio (tumor cell. immune cell). After 24 hr of co-culture, the cells and culture media were collected for further experiments.\nRNA-Binding immunoprecipitation (RIP) and western blot (WB). Py8119-OVA tumor cells after co-culture for 24 hr were collected for RIP using RNA-Binding Protein Immunoprecipitation Kit (Millipore, #17-700). Briefly, 5×10^7 tumor cells were resuspended with 200 μL of RIP lysis buffer and frozen at −80° C. for at least 1 hr to lyse the cells. The sample was then centrifuged at 14,000 rpm for 10 min at 4° C. 20 μL of supernatant was transferred to two new tubes with 10 μL each and frozen at −80° C. to serve as input of total. The rest of the supernatant was diluted with 1.8 ml of RIP immunoprecipitation buffer and split equally into two 1.5 ml EP tubes. 5 μg of MTDH (Invitrogen, catalogue #40-6500), SND1 (Santa Cruz, catalogue #sc-271590) or IgG (provided in the Kit) antibody was added into each tube and incubated at 4° C. overnight. The next day, 50 μL of magnetic beads was added and incubated for another 2 hr. The beads were then washed with 500 μL of RIP wash buffer on a magnetic separator for 5 times. During the final wash, 25 μL of the beads in the wash buffer was transferred into a new tube, stored at −80° C. to serve as input of IP. The rest of the beads together and 10 μL input of total were resuspended with 300 μL of proteinase K buffer respectively and incubated at 55° C. for 30 min to degrade proteins. RNA was extracted with phenol:chloroform:isoamyl alcohol and precipitated with 100 μL of Salt Solution I, 30 μL of Salt Solution II, and 10 μL of Precipitation Enhancer at −80° C. overnight. […]",
  "data": [
    {"compound": "COc1ccc(Cl)cc1S(=O)(=O)Nc1cccn2nc(C)nc12", "note": "[Analog C26-A6]", "values": [
      {"measurement": "OVA antigen and MHC-I complex presentation (flow cytometry)", "value": "promotes OVA antigen and MHC-I complex presentation"},
      {"measurement": "T cell activation (CD137, IFN-γ)", "value": "promotes"},
      {"measurement": "Tap1/2 binding of MTDH and SND1 (RIP assay)", "value": "decreased the Tap1/2 binding of MTDH and SND1"},
      {"measurement": "Tap1/2 mRNA expression level (qRT-PCR)", "value": "increased the expression level of these mRNAs"},
      {"measurement": "immune clearance of tumor cells (cytotoxicity assay)", "value": "sensitizes the tumor cells to immune clearance"}
    ]}
  ]
}
